System: rabbit corneal epithelial cell line SIRC
Assay: Evaluation of cytotoxicity of prepared alginic acid (Cell Counting Kit-8 viable cell detection)
Format: cell-based
Method: The test for toxicity of the alginic acid prepared above (Example 1 and Comparative Examples 1 and 2) to cells was carried out. First, an alginic acid solution was prepared by dissolving each alginic acid to a concentration of 0.2 or 2.0% (w/v) in a cell culture medium of medium 199 (GIBCO) supplemented with 10% (v/v) fetal bovine serum (Daiichi Kagaku Yakuhin). Then, rabbit corneal epithelial cell line SIRC (ATCC number: CCL-60) was plated at 2.0×10^5 cells/well in 48-well microtiter plate (Corning), and alginic acid solution prepared above was added to obtain a final concentration of 0.1 or 1.0% (w/v) of alginic acid, and the cells were subsequently cultured under the condition of 37° C., 5% CO2 and 90% relative humidity. […] After 1 hour, the absorbance (450 nm) of the dye developed by reacting with the viable cells was measured using a spectrophotometer (Thermo Electron). With the observed value of the absorbance, cell viability was calculated in the following equation, and the cytotoxicity of each alginic acid was evaluated.
Cell viability(%)=100×(absorbance of the group in which each alginic acid solution was added−absorbance of the medium containing a reagent for viable cell detection)/(absorbance of the control group−absorbance of the medium containing a reagent for viable cell detection) Equation 5

Substance: alginic acid [Comparative Example 2]
- Cell viability: about 5%
- microscopic observation of cells: lost their adhesive capacity and floated
